According to paper doi:10.1101/679977v1 (bioRxiv, 2019):
Square brackets hold non-standard residues; d marks the D form. Peptide text beside a SMILES is read from it.

Columns and labels:
Assay type in all cases: cell-based
E. coli = assay: Geometric mean of MICs, selectivity and targeting indices; settings: for TI Beneficial strains (targeting index): GM(E. coli)/GM(beneficial strains); for TI Beneficial strains (targeting index) / TI Pathogenic strains (targeting index): smaller = greater specificity; for TI Pathogenic strains (targeting index): GM(E. coli)/GM(other pathogenic strains); for SI E. coli (selectivity index): MHC/GM (E. coli), MHC >128 counted as 256 μM, larger = greater cell selectivity; for TI All (TIall, targeting index): all strains, smaller = greater specificity for E. coli; for GM E. coli: geometric mean of MICs against the 6 E. coli strains, >128 counted as 256 μM
Beneficial strains = assay: Geometric mean of MICs; settings: geometric mean of MICs against beneficial strains; >128 counted as 256 μM
E. coli ATCC25922 = assay: Salt, serum, acid and alkaline sensitivity; settings: for MIC, Control: absence of physiological salts, serum, acid and alkaline; for MIC, FeCl3: in presence of 4μM FeCl3 (final); for MIC, MgCl2: in presence of 1 mM MgCl2; for MIC, KCl: in presence of 4.5 mM KCl (final); for MIC, NaCl: in presence of 150 mM NaCl (final); for MIC, PH=2: peptide incubated at pH=2 for 4 h prior to MIC determination; for MIC, PH=4: peptide incubated at pH=4 for 4 h prior to MIC determination; for MIC, PH=10: peptide incubated at pH=10 for 4 h prior to MIC determination; for MIC, PH=12: peptide incubated at pH=12 for 4 h prior to MIC determination

| SMILES | TI Beneficial strains (targeting index) (E. coli) | TI Pathogenic strains (targeting index) (E. coli) | SI E. coli (selectivity index) (E. coli) | TI All (TIall, targeting index) (E. coli) | GM E. coli (E. coli) [µM] | GM Beneficial strains (Beneficial strains) [µM] | MIC, Control (E. coli ATCC25922) [µM] | MIC, FeCl3 (E. coli ATCC25922) [µM] | MIC, MgCl2 (E. coli ATCC25922) [µM] | MIC, KCl (E. coli ATCC25922) [µM] | MIC, NaCl (E. coli ATCC25922) [µM] | MIC, PH=2 (E. coli ATCC25922) [µM] | MIC, PH=4 (E. coli ATCC25922) [µM] | MIC, PH=10 (E. coli ATCC25922) [µM] | MIC, PH=12 (E. coli ATCC25922) [µM] |
| --- | --- | --- | --- | --- | --- | --- | --- | --- | --- | --- | --- | --- | --- | --- | --- |
| CC[C@H](C)[C@H](NC(=O)CN)C(=O)NCC(=O)N[C@@H](C)C(=O)N[C@H](C(=O)N[C@@H](CC(C)C)C(=O)N[C@@H](CCCCN)C(=O)N[C@H](C(=O)N[C@@H](CC(C)C)C(=O)N[C@H](C(=O)N[C@H](C(=O)NCC(=O)N[C@@H](CC(C)C)C(=O)N1CCC[C@H]1C(=O)N[C@@H](C)C(=O)N[C@@H](CC(C)C)C(=O)N[C@H](C(=O)N[C@@H](CO)C(=O)N[C@@H](Cc1c[nH]c2ccccc12)C(=O)N[C@H](C(=O)N[C@@H](CCCCN)C(=O)N[C@@H](CCCNC(=N)N)C(=O)N[C@@H](CCCCN)C(=O)N[C@@H](CCCNC(=N)N)C(=O)N[C@@H](CCC(N)=O)C(=O)N[C@@H](CCC(N)=O)C(N)=O)[C@@H](C)CC)[C@@H](C)CC)[C@@H](C)O)[C@@H](C)O)C(C)C)C(C)C [MLT, Melittin, reference compound] | 1.122 | 0.630 | 0.794 | 0.876 | 2.520 | 2.245 | – | – | – | – | – | – | – | – | – |
| CC[C@H](C)[C@H](NC(=O)CNC(=O)[C@H]1CCCN1C(=O)[C@H](CCCCN)NC(=O)[C@H](Cc1c[nH]c2ccccc12)NC(=O)[C@@H](NC(=O)[C@@H](N)CCCCN)[C@@H](C)CC)C(=O)N[C@@H](CCCCN)C(=O)N[C@@H](CCCCN)C(=O)N[C@@H](Cc1c[nH]c2ccccc12)C(=O)O [Peptide 1] (H-KIWK[dP]GIKKW-OH; N-terminus and C-terminus assumed) | 1.000 | 1.000 | 1.000 | 1.000 | 256.000 | 256.000 | >64 | >64 | >64 | >64 | >64 | >64 | >64 | >64 | >64 |
| CC[C@H](C)[C@H](NC(=O)CNC(=O)[C@H]1CCCN1C(=O)[C@H](CCCCN)NC(=O)[C@H](Cc1c[nH]c2ccccc12)NC(=O)[C@@H](NC(=O)[C@H](CCCCN)NC(=O)[C@H](CCCCN)NC(=O)[C@@H](N)Cc1c[nH]c2ccccc12)[C@@H](C)CC)C(=O)N[C@@H](CCCCN)C(=O)N[C@@H](CCCCN)C(=O)N[C@@H](Cc1c[nH]c2ccccc12)C(=O)N[C@H](C(=O)N[C@@H](CCCCN)C(=O)O)[C@@H](C)CC [Peptide 2] (H-WKKIWK[dP]GIKKWIK-OH; N-terminus and C-terminus assumed) | 0.063 | 0.070 | 16.000 | 0.067 | 16.000 | 256.000 | 16 | 16 | 32 | 16 | >64 | 32 | 16 | 16 | 32 |
| CC[C@H](C)[C@H](NC(=O)CNC(=O)[C@H]1CCCN1C(=O)[C@H](CCCCN)NC(=O)[C@H](Cc1c[nH]c2ccccc12)NC(=O)[C@@H](NC(=O)[C@H](CCCCN)NC(=O)[C@H](CCCCN)NC(=O)[C@H](Cc1c[nH]c2ccccc12)NC(=O)[C@@H](NC(=O)[C@@H](N)CCCCN)[C@@H](C)CC)[C@@H](C)CC)C(=O)N[C@@H](CCCCN)C(=O)N[C@@H](CCCCN)C(=O)N[C@@H](Cc1c[nH]c2ccccc12)C(=O)N[C@H](C(=O)N[C@@H](CCCCN)C(=O)N[C@@H](CCCCN)C(=O)N[C@@H](Cc1c[nH]c2ccccc12)C(=O)O)[C@@H](C)CC [Peptide 3] (H-KIWKKIWK[dP]GIKKWIKKW-OH; N-terminus and C-terminus assumed) | 0.011 | 0.079 | 90.523 | – | 2.828 | 256.000 | 4 | 4 | 8 | 4 | 16 | 4 | 4 | 4 | 4 |
| CC[C@H](C)[C@H](NC(=O)CNC(=O)[C@H]1CCCN1C(=O)[C@H](CCCCN)NC(=O)[C@H](Cc1c[nH]c2ccccc12)NC(=O)[C@@H](NC(=O)[C@H](CCCCN)NC(=O)[C@H](CCCCN)NC(=O)[C@@H](N)Cc1c[nH]c2ccccc12)[C@@H](C)CC)C(=O)N[C@@H](CCCCN)C(=O)N[C@@H](CCCCN)C(=O)N[C@@H](Cc1c[nH]c2ccccc12)C(=O)N[C@H](C(=O)N[C@@H](CCCCN)C(=O)NCC(=O)NCC(=O)NCC(=O)N[C@@H](CCCCN)C(=O)O)[C@@H](C)CC [Peptide 5] (H-WKKIWK[dP]GIKKWIKGGGK-OH; N-terminus and C-terminus assumed) | 0.044 | 0.050 | 22.627 | 0.047 | 11.314 | 256.000 | 8 | 8 | 32 | 8 | >64 | 32 | 32 | 16 | 16 |
| CC[C@H](C)[C@H](NC(=O)CNC(=O)[C@H]1CCCN1C(=O)[C@H](CCCCN)NC(=O)[C@H](Cc1c[nH]c2ccccc12)NC(=O)[C@@H](NC(=O)[C@H](CCCCN)NC(=O)[C@H](CCCCN)NC(=O)[C@@H](N)Cc1c[nH]c2ccccc12)[C@@H](C)CC)C(=O)N[C@@H](CCCCN)C(=O)N[C@@H](CCCCN)C(=O)N[C@@H](Cc1c[nH]c2ccccc12)C(=O)N[C@H](C(=O)N[C@@H](CCCCN)C(=O)NCC(=O)NCC(=O)NCC(=O)N[C@@H](CCCCN)C(=O)N[C@@H](CCCCN)C(=O)O)[C@@H](C)CC [Peptide 6] (H-WKKIWK[dP]GIKKWIKGGGKK-OH; N-terminus and C-terminus assumed) | 0.050 | 0.056 | 20.159 | 0.053 | 12.699 | 256.000 | 8 | 8 | 32 | 8 | >64 | 32 | 16 | 16 | 16 |
